ChEMBL document CHEMBL2010643 (Bioorg Med Chem Lett, 2012)
Calls of active or inactive are those of the source. The rule behind the calls is not given here.

Tests used:
Mus musculus [1] = assay: Inhibition of LRRK2 phosphorylation at Ser910 in C57BL/6 mouse spleen at 100 mg/kg, po administered for 8 hrs followed by 2 hrs dosing; format: functional, organism-based; parameters: dose 100 mg/kg
Mus musculus [2] = assay: Inhibition of LRRK2 phosphorylation at Ser935 in C57BL/6 mouse spleen at 100 mg/kg, po administered for 8 hrs followed by 2 hrs dosing; format: functional, organism-based; parameters: dose 100 mg/kg
[3] = target: T1, Leucine-rich repeat serine/threonine-protein kinase 2 (Homo sapiens, UniProt Q5S007); assay: Inhibition of wild type LRRK2 phosphorylation at Ser910 in human lymphoblastoid cells at 0.03 to 3 uM after 90 mins by Western blot analysis; format: cell-based
Mus musculus [4] = assay: Inhibition of LRRK2 phosphorylation at Ser935 in C57BL/6 mouse kidney at 100 mg/kg, po administered for 8 hrs followed by 2 hrs dosing; format: functional, organism-based; parameters: dose 100 mg/kg
Mus musculus [5] = assay: Inhibition of LRRK2 phosphorylation at Ser910 in C57BL/6 mouse kidney at 100 mg/kg, po administered for 8 hrs followed by 2 hrs dosing; format: functional, organism-based; parameters: dose 100 mg/kg
[6] = target: T1, Leucine-rich repeat serine/threonine-protein kinase 2; details: HEK293; 0.03 to 3 uM
Description: Inhibition of wild-type LRRK2 phosphorylation at Ser910 expressed in HEK293 cells at 0.03 to 3 uM after 90 mins by immunoblot analysis

[7] = target: T1, Leucine-rich repeat serine/threonine-protein kinase 2; assay: Inhibition of wild-type LRRK2 expressed in HEK293 cells using nictide and [gamma32]ATP as substrate
[8] = target: T1, Leucine-rich repeat serine/threonine-protein kinase 2; details: HEK293; 0.03 to 3 uM; remark: listed apart in the source
Description: Inhibition of wild-type LRRK2 phosphorylation at Ser935 expressed in HEK293 cells at 0.03 to 3 uM after 90 mins by immunoblot analysis

[9] = target: T1, Leucine-rich repeat serine/threonine-protein kinase 2; assay: Inhibition of wild type LRRK2 phosphorylation at Ser935 in human lymphoblastoid cells at 0.03 to 3 uM after 90 mins by Western blot analysis; format: cell-based

T1 sequence (Q5S007 whole entry): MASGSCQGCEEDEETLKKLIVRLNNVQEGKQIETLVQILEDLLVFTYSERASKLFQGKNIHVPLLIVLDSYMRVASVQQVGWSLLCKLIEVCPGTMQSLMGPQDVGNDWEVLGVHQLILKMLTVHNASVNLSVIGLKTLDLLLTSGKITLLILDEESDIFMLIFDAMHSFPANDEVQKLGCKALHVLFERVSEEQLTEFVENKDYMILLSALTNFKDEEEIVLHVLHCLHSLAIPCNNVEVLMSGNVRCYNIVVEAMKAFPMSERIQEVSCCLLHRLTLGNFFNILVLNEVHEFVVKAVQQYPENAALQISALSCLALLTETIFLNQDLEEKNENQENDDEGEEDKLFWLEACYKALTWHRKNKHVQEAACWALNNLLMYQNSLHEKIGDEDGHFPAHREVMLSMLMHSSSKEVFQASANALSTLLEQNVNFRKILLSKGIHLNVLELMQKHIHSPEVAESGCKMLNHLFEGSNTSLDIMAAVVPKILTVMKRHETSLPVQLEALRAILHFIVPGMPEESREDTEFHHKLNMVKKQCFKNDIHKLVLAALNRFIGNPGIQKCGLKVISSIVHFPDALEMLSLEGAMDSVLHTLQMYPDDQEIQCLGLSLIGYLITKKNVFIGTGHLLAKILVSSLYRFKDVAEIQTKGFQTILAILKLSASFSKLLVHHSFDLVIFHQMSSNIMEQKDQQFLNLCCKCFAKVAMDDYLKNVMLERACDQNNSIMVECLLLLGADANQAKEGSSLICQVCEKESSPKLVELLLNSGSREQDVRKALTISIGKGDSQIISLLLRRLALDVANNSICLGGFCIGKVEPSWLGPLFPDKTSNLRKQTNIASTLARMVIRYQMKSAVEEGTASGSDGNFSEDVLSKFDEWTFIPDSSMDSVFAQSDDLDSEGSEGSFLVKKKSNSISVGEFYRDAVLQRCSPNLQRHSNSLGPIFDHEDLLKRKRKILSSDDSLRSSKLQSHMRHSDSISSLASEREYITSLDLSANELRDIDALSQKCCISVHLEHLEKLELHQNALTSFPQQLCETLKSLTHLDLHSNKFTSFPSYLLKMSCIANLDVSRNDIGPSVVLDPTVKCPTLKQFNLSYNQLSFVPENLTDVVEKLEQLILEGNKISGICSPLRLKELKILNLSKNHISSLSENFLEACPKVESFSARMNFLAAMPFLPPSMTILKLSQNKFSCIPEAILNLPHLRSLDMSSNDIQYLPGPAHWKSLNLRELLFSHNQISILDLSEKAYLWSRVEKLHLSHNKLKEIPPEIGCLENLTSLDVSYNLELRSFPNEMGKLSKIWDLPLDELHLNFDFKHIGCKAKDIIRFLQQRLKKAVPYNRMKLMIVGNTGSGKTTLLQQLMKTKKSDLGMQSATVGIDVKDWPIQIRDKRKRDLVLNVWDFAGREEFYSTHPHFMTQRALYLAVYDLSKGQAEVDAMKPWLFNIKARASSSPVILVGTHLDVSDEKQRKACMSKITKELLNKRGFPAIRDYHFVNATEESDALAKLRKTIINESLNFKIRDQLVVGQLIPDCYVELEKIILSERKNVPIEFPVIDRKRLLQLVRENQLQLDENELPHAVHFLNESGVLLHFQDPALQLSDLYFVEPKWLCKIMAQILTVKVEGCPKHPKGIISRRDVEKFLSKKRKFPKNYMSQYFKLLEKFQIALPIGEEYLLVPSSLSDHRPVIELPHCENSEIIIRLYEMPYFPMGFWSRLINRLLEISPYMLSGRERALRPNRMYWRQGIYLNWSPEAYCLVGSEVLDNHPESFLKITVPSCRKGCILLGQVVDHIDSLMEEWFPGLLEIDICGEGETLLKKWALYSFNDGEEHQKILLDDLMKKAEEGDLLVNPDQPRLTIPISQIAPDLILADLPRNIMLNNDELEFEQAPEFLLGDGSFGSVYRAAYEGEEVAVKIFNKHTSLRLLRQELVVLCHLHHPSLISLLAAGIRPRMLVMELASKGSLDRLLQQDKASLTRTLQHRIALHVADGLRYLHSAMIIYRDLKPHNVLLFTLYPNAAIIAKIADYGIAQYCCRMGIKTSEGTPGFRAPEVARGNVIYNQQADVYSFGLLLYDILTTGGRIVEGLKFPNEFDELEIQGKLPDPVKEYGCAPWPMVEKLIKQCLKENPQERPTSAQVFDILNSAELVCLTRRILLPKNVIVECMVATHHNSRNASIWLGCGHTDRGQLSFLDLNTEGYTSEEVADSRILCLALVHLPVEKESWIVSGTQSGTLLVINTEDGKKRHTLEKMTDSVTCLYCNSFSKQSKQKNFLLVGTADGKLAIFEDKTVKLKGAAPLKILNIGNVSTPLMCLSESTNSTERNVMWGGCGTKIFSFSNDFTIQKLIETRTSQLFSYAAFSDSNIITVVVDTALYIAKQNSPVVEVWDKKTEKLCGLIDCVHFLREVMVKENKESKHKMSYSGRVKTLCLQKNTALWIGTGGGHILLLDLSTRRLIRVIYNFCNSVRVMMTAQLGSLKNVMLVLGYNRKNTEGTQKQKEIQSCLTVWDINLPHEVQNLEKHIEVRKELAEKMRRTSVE

**Q.** With COc1cc(C(=O)N2CCC(N3CCN(C)CC3)CC2)ccc1Nc1ncc2c(n1)N(C)c1ccccc1C(=O)N2C as the compound, how does the inhibition (Mus musculus [1]) read?
**A.** Active

**Q.** And the inhibition (Mus musculus [2])?
**A.** Active

**Q.** And the inhibition [3]?
**A.** Active

**Q.** And the inhibition (Mus musculus [4])?
**A.** Active

**Q.** What about the inhibition (Mus musculus [5]) of the same compound?
**A.** Active

**Q.** And the inhibition [6]?
**A.** Active

**Q.** And the IC50 [7]?
**A.** 13 nM

**Q.** And the inhibition [8]?
**A.** Active

**Q.** And the inhibition [9]?
**A.** Active
